Drawing on ChEMBL document CHEMBL1144671, “Non-ATP competitive glycogen synthase kinase 3beta (GSK-3beta) inhibitors: study of structural requirements for thiadiazolidinone derivatives” (Bioorg Med Chem, 2008), this text covers IC50 for 46 molecules.

This assay in a line: Inhibition of rabbit recombinant GSK3-beta. Further details: species or system Oryctolagus cuniculus.

As a reminder, the IC50 is the concentration needed to halve the response being measured.

For the molecule `N#CCn1s/c(=N\C(=O)c2ccccc2)n(CC#N)c1=O`, the IC50 is above 100 µM. With `Cn1s/c(=N\C(=O)c2ccccc2)n(CC(=O)O)c1=O`, the IC50 is above 100 µM. The result for `N#CCn1c(=O)[nH]s/c1=N\C(=O)c1ccccc1` reads above 100 µM; that for `c1cc(Nc2nsc(Nc3ccncc3)n2)ccn1`, above 100 µM. The result for `Cn1sc(Nc2ccccc2)nc1=O` reads 12.5 µM. The result for `O=C(Nc1nc(=O)n(Cc2ccccc2)s1)c1ccccc1` reads above 100 µM; that for `CCOC(=O)Cn1c(=O)n(Cc2ccccc2)s/c1=N\C(=O)c1ccccc1`, above 100 µM.

For `O=C(Nc1nc(=O)[nH]s1)c1ccccc1`, the IC50 was above 100 µM. Under `CCOC(=O)c1nsc(-c2ccccc2)n1` stands above 100 µM; under `CCNc1nsc(NCC)n1`, above 100 µM; under `Cn1sc(Nc2ccc(Br)cc2)nc1=O`, 15 µM. Turning to `CCOC(=O)Cn1c(=O)n(C)s/c1=N\C(=O)c1ccccc1`, the IC50 is above 100 µM. Under `c1ccc(-c2nsc(-c3ccccc3)n2)cc1` stands above 100 µM; under `Cn1s/c(=N\C(=O)c2ccccc2)n(C)c1=O`, above 100 µM. `Cn1sc(N)nc1=O`: the IC50 was found to be 40 µM. With `O=c1nc(NCc2ccccc2)s[nH]1`, the IC50 worked out at 6.5 µM.

On to `Cc1ccc(-c2nsc(S(=O)(=O)c3ccc(C)cc3)n2)cc1`, for which the IC50 is above 100 µM. For the molecule `Cc1ccc(-c2nsc(=O)[nH]2)cc1`, the IC50 was above 100 µM. In the case of `CCOC(=O)c1nc(-c2ccc(Cl)cc2)ns1`, the IC50 is above 100 µM. Consider `CCOC(=O)c1nc(-c2cc(C(C)(C)C)c(O)c(C(C)(C)C)c2)ns1`, for which the IC50 was above 100 µM. In the case of `Nc1nc(=O)[nH]s1`, the IC50 came to 25 µM. Under `Cn1s/c(=N\Cc2ccccc2)n(Cc2ccccc2)c1=O` stands above 100 µM; under `Cn1sc(NCc2ccccc2)nc1=O`, 20 µM; under `CCOC(=O)Cn1c(-c2ccc(C)cc2)nsc1=O`, above 100 µM. The result for `O=C(/N=c1\s[nH]c(=O)n1Cc1ccccc1)c1ccccc1` reads above 100 µM; that for `Cn1sc(NC(=O)c2ccccc2)nc1=O`, above 100 µM; that for `CCOC(=O)CNc1nc(=O)n(C)s1`, 20 µM. Under `CC(=O)Nc1nsc(NC(C)=O)n1` stands above 100 µM; under `CCOC(=O)Cn1c(=O)n(C)s/c1=N\Cc1ccccc1`, above 100 µM; under `CCOC(=O)c1nc(-c2ccc([N+](=O)[O-])cc2)ns1`, above 100 µM. With `CNc1nc(=O)n(C)s1`, the IC50 was found to be 18 µM.

On to `Cn1sc(NCCc2ccccc2)nc1=O`, for which the IC50 worked out at 15 µM. In the case of `Cn1sc(NCCO)nc1=O`, the 50% inhibitory concentration (IC50) was above 100 µM. The result for `CCOC(=O)c1nc(-c2ccc(OC)cc2)ns1` reads above 100 µM; that for `O=c1nc(NCc2ccccc2)sn1Cc1ccccc1`, above 100 µM; that for `Cn1s/c(=N\C(=O)c2ccccc2)n(Cc2ccccc2)c1=O`, above 100 µM. On to `c1ccc(Nc2nsc(Nc3ccccc3)n2)cc1`, for which the IC50 was above 100 µM. The result for `Cc1ccccc1-c1nsc(=O)[nH]1` reads above 100 µM. The result for `Cn1s/c(=N\c2ccc(Br)cc2)n(C)c1=O` reads above 100 µM. The result for `O=C(/N=c1\sn(Cc2ccccc2)c(=O)n1Cc1ccccc1)c1ccccc1` reads above 100 µM; that for `O=C(O)Cn1c(=O)n(Cc2ccccc2)s/c1=N\C(=O)c1ccccc1`, above 100 µM; that for `Cn1s/c(=N\C(=O)c2ccccc2)n(CC#N)c1=O`, above 100 µM. With `ClCc1nc(-c2ccccc2)ns1`, the IC50 is above 100 µM. Under `CCOC(=O)Nc1nc(=O)n(C)s1` stands above 100 µM; under `Cn1sc(NCC(=O)O)nc1=O`, 75 µM; under `CCOC(=O)c1nc(-c2ccccc2)ns1`, above 100 µM.
